One experiment relates to whole complement. The experiment is described as follows: Complement level reduction in dosed guinea pigs (capillary tube assay). The experiment is classed as in vivo. Particulars: guinea pig, 200 mg/kg.
Experiment [1] relates to shunt pathway activated by cobra venom factor. The experiment is described as follows: Test, Code 036 (C-Shunt inhibitor), lysis of human erythrocytes in autologous serum. It is filed as cell-based. The source says: (§1) An active inhibitor protects C2 from C1 and C4; (ii) Test, Code 035 (C3-C9 inhibitor) -- This test determines the ability of the late components of human complement (C3-C9) to lyse EAC 142 in the presence of appropriate dilutions of the test compound. An active inhibitor protects EAC 142 from lysis by human C3-C9; (iii) Test, Code 036 (C-Shunt inhibitor) -- In this test human erythrocytes rendered fragile are lysed in autologous serum via the shunt pathway activated by cobra venom factor in the presence of appropriate dilutions of the test compound. Inhibition of the shunt pathway results in failure of lysis; (iv) Forssman Vasculitis Test -- Here, the well known complement dependent lesion, Forssman vasculitis, is produced in guinea pigs by intradermal injection of rabbit anti-Forssman antiserum. The lesion is measured in terms of diameter, edema and hemorrhage and the extent to which a combined index of these is inhibited by prior intraperitoneal injection of the test compound at 200 mg/kg is then reported, unless otherwise stated; (v) Forssman Shock Test -- Lethal shock is produced in guinea pigs by an i.v. injection of anti-Forssman antiserum and the harmonic mean death time of treated guinea pigs is compared with that of simultaneous controls; (vi) Complement Level Reduction Test -- In this test, the above dosed guinea pigs, or others, are bled for serum and the complement level is determined in undiluted serum by the capillary tube method of U.S. Pat. No. 3,876,376 and compared to undosed control guinea pigs; and (vii) Cap 50 Test -- Here, appropriate amounts of the test compound are added to a pool of guinea pig serum in vitro, after which the undiluted serum capillary tube assay referred to above is run. The concentration of compound inhibiting 50% is reported.

The subject of experiment [2] is late components of human complement (C3-C9). The experiment is described as follows: Test, Code 035 (C3-C9 inhibitor), lysis of EAC 142. To be noted: human C3-C9, EAC 142, in vitro. The experiment is classed as cell-based.
Excerpt: as §1

Experiment [3] concerns hereditary angioneurotic edema. Particulars: New England Journal of Medicine, 286, 808-812 (1972); cited from earlier work.
Another experiment has as its target T1, activated human C1 (Homo sapiens, UniProt P09871).
T1 construct: fluid-phase human C2 cleavage in presence of C4
The experiment is described as follows: Test, Code 026 (C1 inhibitor). It is filed as biochemical. Particulars: human C1, in vitro. An excerpt:
An active inhibitor protects C2 from C1 and C4; (ii) Test, Code 035 (C3-C9 inhibitor) -- This test determines the ability of the late components of human complement (C3-C9) to lyse EAC 142 in the presence of appropriate dilutions of the test compound. An active inhibitor protects EAC 142 from lysis by human C3-C9; (iii) Test, Code 036 (C-Shunt inhibitor) -- In this test human erythrocytes rendered fragile are lysed in autologous serum via the shunt pathway activated by cobra venom factor in the presence of appropriate dilutions of the test compound. Inhibition of the shunt pathway results in failure of lysis; (iv) Forssman Vasculitis Test -- Here, the well known complement dependent lesion, Forssman vasculitis, is produced in guinea pigs by intradermal injection of rabbit anti-Forssman antiserum. […]

The test system of a further experiment is complement system. Particulars: literature; cited from earlier work.

Counter-ions that a name gives are not always drawn.

T1 sequence (P09871 16-688): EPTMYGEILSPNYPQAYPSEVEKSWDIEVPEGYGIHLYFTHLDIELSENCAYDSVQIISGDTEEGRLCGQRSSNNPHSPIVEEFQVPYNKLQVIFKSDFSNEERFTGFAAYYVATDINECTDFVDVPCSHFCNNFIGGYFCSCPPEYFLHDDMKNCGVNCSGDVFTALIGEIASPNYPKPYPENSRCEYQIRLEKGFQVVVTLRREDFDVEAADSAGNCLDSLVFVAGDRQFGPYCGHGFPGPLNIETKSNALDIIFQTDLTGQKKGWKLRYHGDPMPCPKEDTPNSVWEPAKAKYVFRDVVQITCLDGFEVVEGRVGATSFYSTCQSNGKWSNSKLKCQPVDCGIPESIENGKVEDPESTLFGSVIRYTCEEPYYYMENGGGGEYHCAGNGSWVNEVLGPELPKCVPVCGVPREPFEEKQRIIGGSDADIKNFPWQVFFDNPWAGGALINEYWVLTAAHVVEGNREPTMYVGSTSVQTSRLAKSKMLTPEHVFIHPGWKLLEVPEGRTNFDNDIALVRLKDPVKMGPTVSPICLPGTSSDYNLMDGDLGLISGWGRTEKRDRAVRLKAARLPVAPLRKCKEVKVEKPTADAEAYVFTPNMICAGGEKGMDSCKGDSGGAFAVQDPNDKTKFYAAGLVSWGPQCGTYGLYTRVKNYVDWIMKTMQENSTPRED
T1 sequence (P00736 18-705 partner): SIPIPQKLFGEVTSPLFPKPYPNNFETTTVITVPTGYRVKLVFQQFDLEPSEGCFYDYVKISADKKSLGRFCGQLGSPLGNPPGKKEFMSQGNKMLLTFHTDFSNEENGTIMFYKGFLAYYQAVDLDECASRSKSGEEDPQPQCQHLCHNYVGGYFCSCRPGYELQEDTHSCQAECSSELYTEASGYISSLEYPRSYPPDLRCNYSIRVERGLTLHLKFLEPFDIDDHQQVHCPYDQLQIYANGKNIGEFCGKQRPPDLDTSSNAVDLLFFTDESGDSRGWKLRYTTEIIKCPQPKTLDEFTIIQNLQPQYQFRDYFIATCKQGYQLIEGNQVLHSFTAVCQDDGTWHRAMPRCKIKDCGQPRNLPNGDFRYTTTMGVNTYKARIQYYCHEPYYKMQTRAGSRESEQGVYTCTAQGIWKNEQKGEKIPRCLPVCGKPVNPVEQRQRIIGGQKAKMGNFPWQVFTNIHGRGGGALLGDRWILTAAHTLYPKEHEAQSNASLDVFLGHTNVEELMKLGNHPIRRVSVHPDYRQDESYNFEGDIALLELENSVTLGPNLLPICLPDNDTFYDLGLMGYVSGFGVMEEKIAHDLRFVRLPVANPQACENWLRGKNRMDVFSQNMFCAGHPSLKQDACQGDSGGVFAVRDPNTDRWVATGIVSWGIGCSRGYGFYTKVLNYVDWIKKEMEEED
T1 sequence (P02745 23-245 partner): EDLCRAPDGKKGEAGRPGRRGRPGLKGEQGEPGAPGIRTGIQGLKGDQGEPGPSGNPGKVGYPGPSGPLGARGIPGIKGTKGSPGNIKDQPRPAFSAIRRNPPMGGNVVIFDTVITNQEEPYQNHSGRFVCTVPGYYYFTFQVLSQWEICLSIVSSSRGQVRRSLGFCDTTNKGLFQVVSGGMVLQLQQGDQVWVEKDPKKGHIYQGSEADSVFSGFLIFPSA
T1 sequence (P02746 28-253 partner): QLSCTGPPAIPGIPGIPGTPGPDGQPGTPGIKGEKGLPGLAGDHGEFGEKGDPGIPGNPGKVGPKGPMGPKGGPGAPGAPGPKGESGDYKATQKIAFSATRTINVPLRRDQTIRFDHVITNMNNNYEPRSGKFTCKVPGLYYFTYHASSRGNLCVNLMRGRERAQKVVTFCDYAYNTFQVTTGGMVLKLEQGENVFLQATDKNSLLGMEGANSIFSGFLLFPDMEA
T1 sequence (P02747 29-245 partner): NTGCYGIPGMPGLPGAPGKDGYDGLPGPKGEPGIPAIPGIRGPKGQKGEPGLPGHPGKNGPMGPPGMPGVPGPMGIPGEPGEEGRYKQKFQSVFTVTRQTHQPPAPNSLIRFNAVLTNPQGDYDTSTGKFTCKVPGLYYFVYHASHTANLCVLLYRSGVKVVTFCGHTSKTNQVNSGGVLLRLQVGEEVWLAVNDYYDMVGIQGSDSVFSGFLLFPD

Regarding `O=C(Nc1cc(C(=O)Nc2cc(S(=O)(=O)O)cc3cc(S(=O)(=O)O)cc(O)c23)cc(C(=O)Nc2cc(S(=O)(=O)O)cc3cc(S(=O)(=O)O)cc(O)c23)c1)Nc1cc(C(=O)Nc2cc(S(=O)(=O)O)cc3cc(S(=O)(=O)O)cc(O)c23)cc(C(=O)Nc2cc(S(=O)(=O)O)cc3cc(S(=O)(=O)O)cc(O)c23)c1` [4,4',4",4'"-[Carbonylbis[imino-5,1,3-benzenetriylbis(carbonylimino)]]tetrakis[5-hydroxy-2,7-naphthalenedisulfonic acid] octasodium salt], the “% change in complement level” value in the experiment with whole complement (i.p., time 30) is -69%; with whole complement (i.p., time 60), -92%; with whole complement (i.p., time 120) it was -98%. Further, the “Shunt Inhibition 036* Wells” value in experiment [1] is “+1 Wells”.
As for `O=C(Nc1cc(C(=O)Nc2cc(S(=O)(=O)O)cc3cc(S(=O)(=O)O)ccc23)cc(C(=O)Nc2cc(S(=O)(=O)O)cc3cc(S(=O)(=O)O)ccc23)c1)Nc1cc(C(=O)Nc2cc(S(=O)(=O)O)cc3cc(S(=O)(=O)O)ccc23)cc(C(=O)Nc2cc(S(=O)(=O)O)cc3cc(S(=O)(=O)O)ccc23)c1` [4,4',4",4'"-{Carbonylbis[imino-5,1,3-benzenetriylbis(carbonylimino)]}tetrakis[2,7-naphthalenedisulfonic acid] octasodium salt], the “Shunt Inhibition 036* Wells” value in experiment [1] is listed as “+3 Wells”. Further, in experiment [2], the “C-Late 035* Wells” value was “+1 Wells” and the “C-Late 035* Wells (class symbol N)” value was “N (N means inactive, O Wells)”.
For `NCCCCCC(=O)O` [6-aminohexanoic acid], in experiment [3], the “use in treatment of hereditary angioneurotic edema” value (from here on “use in treatment”) is given as “used with success”.
Regarding `O=C(Nc1cc(C(=O)Nc2ccc(S(=O)(=O)O)c3cc(S(=O)(=O)O)cc(S(=O)(=O)O)c23)cc(C(=O)Nc2ccc(S(=O)(=O)O)c3cc(S(=O)(=O)O)cc(S(=O)(=O)O)c23)c1)Nc1cc(C(=O)Nc2ccc(S(=O)(=O)O)c3cc(S(=O)(=O)O)cc(S(=O)(=O)O)c23)cc(C(=O)Nc2ccc(S(=O)(=O)O)c3cc(S(=O)(=O)O)cc(S(=O)(=O)O)c23)c1` [8,8',8",8"'-[Carbonylbis[imino-5,1,3-benzenetriylbis(carbonylimino)]]tetrakis[1-3,5-naphthalenesulfonic acid] dodecasodium salt], the “% change in complement level” value was -98% with whole complement (i.p., time 30) and -98% with whole complement (i.p., time 60).
Regarding `O=C(Nc1cc(C(=O)Nc2cc(S(=O)(=O)O)cc3cc(S(=O)(=O)O)cc(S(=O)(=O)O)c23)cc(C(=O)Nc2cc(S(=O)(=O)O)cc3cc(S(=O)(=O)O)cc(S(=O)(=O)O)c23)c1)Nc1cc(C(=O)Nc2cc(S(=O)(=O)O)cc3cc(S(=O)(=O)O)cc(S(=O)(=O)O)c23)cc(C(=O)Nc2cc(S(=O)(=O)O)cc3cc(S(=O)(=O)O)cc(S(=O)(=O)O)c23)c1` [8,8',8",8'"-[Carbonylbis[imino-5,1,3-benzenetriylbis(carbonylimino)]]tetrakis[1,3,6-naphthalenetrisulfonic acid]dodecasodium salt], the “C1 026* Wells” value at activated human C1 is “+9 Wells”. In addition, the “% change in complement level” value with whole complement (i.p., time 30) is -88%; in the experiment with whole complement (i.p., time 60) it was -85%; in the experiment with whole complement (i.p., time 120) it was -92%; in the experiment on whole complement (i.v., time 2) it was -98%; in the experiment on whole complement (i.v., time 30), -97%; in the experiment with whole complement (i.v., time 120), -89%. In experiment [1], the “Shunt Inhibition 036* Wells” value is reported as “+5 Wells”. In experiment [2], the “C-Late 035* Wells” value is reported as “+3 Wells”.
Take `Cc1ccc(C(=O)Nc2ccc(S(=O)(=O)O)c3cc(S(=O)(=O)O)cc(S(=O)(=O)O)c23)cc1NC(=O)c1cccc(NC(=O)Nc2cccc(C(=O)Nc3cc(C(=O)Nc4ccc(S(=O)(=O)O)c5cc(S(=O)(=O)O)cc(S(=O)(=O)O)c45)ccc3C)c2)c1` [Suramin]: the “use in treatment” value in experiment [3] is reported as “used with success”. In addition, the “anticomplementary effect / complement inhibition” value with complement system was “competitive inhibitor of the complement system”.
Take `Nc1ccc2cc(S(=O)(=O)O)cc(O)c2c1N=Nc1ccc(NC(=O)Nc2ccc(N=Nc3c(N)ccc4cc(S(=O)(=O)O)cc(O)c34)c(S(=O)(=O)O)c2)cc1S(=O)(=O)O` [chlorazol fast pink, 3,3-(carbonyldiimino)bis[6-(2-amino-8-hydroxy-6-sulfo-1-naphthylazo)benzenesulfonic acid], tetrasodium salt]: the “anticomplementary effect / complement inhibition” value in the experiment with complement system is reported as “anticomplementary effect”.
Regarding `NC[C@H]1CC[C@H](C(=O)O)CC1` [trans-4-(aminomethyl)-cyclohexanecarboxylic acid], the “use in treatment” value in experiment [3] is “used with success”.
Regarding heparin, the “anticomplementary effect / complement inhibition” value with complement system was “anticomplementary effect”.

The record behind these values is patent US4129591A, “Ureida-phenylenebis(substituted imino)multianionic substituted dinaphthalene sulfonic acids and salts” (American Cyanamid Company, priority 1976, dated 1978).
